From patent publication USRE46856E1, “Substituted 2,3-dihydroimidazo[1,2-c]quinazoline derivatives useful for treating hyper-proliferative disorders and diseases associated with angiogenesis” (Bayer Intellectual Property GmbH, priority 2006, dated 2018)
Counter-ions that a name gives are not always drawn. Like-named read-outs stand apart in the source and are kept apart here.

Test system: IGF-1 induced AKT phosphorylation in A549 cells
Assay: IGF-1 induced AKT phosphorylation assay (A549 cell assay)
Type: cell-based
Details: Homo sapiens
Description: [Determination of IC50 Values of Compounds in Cell Based Assays of PI3K Activity] 96-well collagen treated clear bottom/black sided Costar plates were purchased from CORNING LIFE SCIENCES (Corning, N.Y.; at.#3904). Gibco RPMI medium (Cat.#11875), Biosource anti-phospho-AKT([…]) antibody (Cat.#44-621G) and recombinant IGF-1 (Cat.#PHG0074) were purchased from INVITROGEN (Carlsbad, Calif.). The secondary donkey anti-rabbit IgG horse radish peroxidase conjugate (Cat. #N[…]) and ECL chemiluminesence reagent (Cat.#RPN2209) were purchased from […] (Buckinghamshire, UK). Cell culture tested bovine serum albumin solution (35% in DPBS; Cat.#A7979) and all other chemicals were purchased from SIGMA (St. Louis, Mo.). The Wallac Victor2 1420 Multilabel HTS Counter was purchased from […] (Wellesley, Mass.) […] All wells (except no IGF-1 controls) were then treated with 25 ng/ml IGF-1 for 10 minutes at 37° C. in a 5% CO2 incubator. Following removal of the supernatants and washing with the wells with TBS (50 mM Tris pH 8.0 containing 138 mM NaCL and 27 mM KCl), 200 µL of 3.7% formaldehyde in TBS was added to each well, and the plate was incubated at 4° C. for 10 minutes. Supernatants were once again removed and replaced with 50 μL Methanol (-20° C.) and the plate incubated at 4° C. for 5 minutes. 200 μL of 0.1% BSA in TBS was then added to each well and the plate incubated at room temperature for 1⁄2 hour. Supernatants were removed and 50 μL of a solution comprising the primary anti-phospho-AKT([…]) antibody diluted 1:250 in TBS containing 0.1% BSA was added to each well (except control/background wells). The plate was then incubated for 11⁄2 hour at room temperature. Supernatants were removed, each well was washed 3 times with 200 μL TBS, and 100 μL of a solution containing the secondary donkey anti-rabbit IgG antibody HRP-conjugate diluted 1:100 in TBS-T (TBS containing 0.1% triton). Plates were then incubated for 1 hour at room temperature. After removing the secondary antibody, each well was washed 6 times with cold TBS-T, 100 μL of ECL was added to each well, and the plate was placed on an orbital shaker for 1 minute. The plates were then read on a Wallac Victor2 1420 Multilabel HTS Counter using the luminometry window (maximum light detection is measured at […]). IC50 values were determined from the inhibition curve.

[1] = A549 cells, 25 ng/ml IGF-1, phospho-AKT(Ser 473), read-out: average IC50 in the A549 cell assay

| Structure (SMILES) | IC50 [1] [nM] | IC50 (A549, read-out: average IC50 in the A549 cell assay) [nM] |
| --- | --- | --- |
| COc1c(OCCCN2CCOCC2)ccc2c1N=C(NC(=O)c1ccc(NCc3ccco3)nc1)N1CCN=C21 [Example 54, 6-[(2-furylmethyl)amino]-N-[7-methoxy-8-(3-morpholin-4-ylpropoxy)-2,3-dihydroimidazo[1,2-c]quinazolin-5-yl]nicotinamide] | 100 to 1000 | – |
| COc1c(OCCCN2CCCCC2)ccc2c1N=C(NC(=O)c1cccnc1)N1CCN=C21 [Example 74, N-[7-methoxy-8-(3-piperidin-1-ylpropoxy)-2,3-dihydroimidazo[1,2-c]quinazolin-5-yl]nicotinamide] | < 100 | – |
| COCCN1CCOC(COc2ccc3c(c2OC)N=C(NC(=O)c2cccnc2)N2CCN=C32)C1 (stereo not shown) [Example 22, N-(7-methoxy-8-{[4-(2-methoxyethyl)morpholin-2-yl]methoxy}-2,3-dihydroimidazo[1,2-c]quinazolin-5-yl)nicotinamide] | < 100 | – |
| COc1c(OCCCN(C)C)ccc2c1N=C(NC(=O)c1ccc(N)nc1)N1CCN=C21 [Example 46, 6-amino-N-{8-[3-(dimethylamino)propoxy]-7-methoxy-2,3-dihydroimidazo[1,2-c]quinazolin-5-yl}nicotinamide] | < 100 | – |
| COc1c(OCC2CNCCO2)ccc2c1N=C(NC(=O)c1cccnc1)N1CCN=C21 (stereo not shown) [Example 35, N-[7-methoxy-8-(morpholin-2-ylmethoxy)-2,3-dihydroimidazo[1,2-c]quinazolin-5-yl]nicotinamide] | < 100 | – |
| COc1c(OCCCN2CCOCC2)ccc2c1N=C(NC(=O)c1ccc(NC(=O)C3CC3)nc1)N1CCN=C21 [Example 60, 6-[(cyclopropylcarbonyl)amino]-N-[7-methoxy-8-(3-morpholin-4-ylpropoxy)-2,3-dihydroimidazo[1,2-c]quinazolin-5-yl]nicotinamide] | < 100 | – |
| COc1c(OCCCN2CCOCC2)ccc2c1N=C(NC(=O)c1cnc(N)nc1C)N1CCN=C21 [Example 32, 2-amino-N-[7-methoxy-8-(3-morpholin-4-ylpropoxy)-2,3-dihydroimidazo[1,2-c]quinazolin-5-yl]-4-methylpyrimidine-5-carboxamide] | < 100 | – |
| COc1c(OCCCN2CCOCC2)ccc2c1N=C(NC(=O)c1ccc(N3CC[C@@H](N)C3)nc1)N1CCN=C21 [Example 52, 6-[(3R)-3-aminopyrrolidin-1-yl]-N-[7-methoxy-8-(3-morpholin-4-ylpropoxy)-2,3-dihydroimidazo[1,2-c]quinazolin-5-yl]nicotinamide hydrochloride] | < 100 | – |
| COc1c(OCCCN2CCOCC2)ccc2c1N=C(NC(=O)c1ccnc(N)c1)N1CCN=C21 [Example 5, 2-amino-N-[7-methoxy-8-(3-morpholin-4-ylpropoxy)-2,3-dihydroimidazo[1,2-c]quinazolin-5-yl]isonicotinamide] | 100 to 1000 | – |
| COc1c(OCCN)ccc2c1N=C(NC(=O)c1cccnc1)N1CCN=C21 [Example 82, N-[8-(2-aminoethoxy)-7-methoxy-2,3-dihydroimidazo[1,2-c]quinazolin-5-yl]nicotinamide] | 100 to 1000 | – |
| COc1c(OCCCN2CCOCC2)ccc2c1N=C(NC(=O)c1cnc(N)nc1)N1CCN=C21 [Example 13, 2-amino-N-[7-methoxy-8-(3-morpholin-4-ylpropoxy)-2,3-dihydroimidazo[1,2-c]quinazolin-5-yl]pyrimidine-5-carboxamide] | – | < 100 |
| CNCCCOc1ccc2c(c1OC)N=C(NC(=O)c1cccnc1)N1CCN=C21 [Example 58, N-{7-methoxy-8-[3-(methylamino)propoxy]-2,3-dihydroimidazo[1,2-c]quinazolin-5-yl}nicotinamide] | 100 to 1000 | – |
| CCN(CC)CCOc1ccc2c(c1OC)N=C(NC(=O)c1cccnc1)N1CCN=C21 [Example 87, N-{8-[2-(diethylamino)ethoxy]-7-methoxy-2,3-dihydroimidazo[1,2-c]quinazolin-5-yl}nicotinamide] | 100 to 1000 | – |
| COc1c(OCCCN2CCOCC2)ccc2c1N=C(NC(=O)c1sc(C)nc1C)N1CCN=C21 [Example 94, N-[7-methoxy-8-(3-morpholin-4-ylpropoxy)-2,3-dihydroimidazo[1,2-c]quinazolin-5-yl]-2,4-dimethyl-1,3-thiazole-5-carboxamide] | < 100 | – |
| COCCNc1ncc(C(=O)NC2=Nc3c(ccc(OCCCN4CCOCC4)c3OC)C3=NCCN23)cn1 [Example 44, 2-[(2-methoxyethyl)amino]-N-[7-methoxy-8-(3-morpholin-4-ylpropoxy)-2,3-dihydroimidazo[1,2-c]quinazolin-5-yl]pyrimidine-5-carboxamide] | > 1000 | – |
| CCN(CC)CCCOc1ccc2c(c1OC)N=C(NC(=O)c1cccnc1)N1CCN=C21 [Example 85, N-{8-[3-(diethylamino)propoxy]-7-methoxy-2,3-dihydroimidazo[1,2-c]quinazolin-5-yl}nicotinamide] | < 100 | – |
| COc1c(OCCCN2CCOCC2)ccc2c1N=C(NC(=O)c1coc(N)n1)N1CCN=C21 [Example 79, 2-amino-N-[7-methoxy-8-(3-morpholin-4-ylpropoxy)-2,3-dihydroimidazo[1,2-c]quinazolin-5-yl]-1,3-oxazole-4-carboxamide] | > 1000 | – |
| COc1c(OCCCN2CCOCC2)ccc2c1N=C(NC(=O)c1cncn1C)N1CCN=C21 [Example 30, N-[7-methoxy-8-(3-morpholin-4-ylpropoxy)-2,3-dihydroimidazo[1,2-c]quinazolin-5-yl]-1-methyl-1H-imidazole-5-carboxamide] | 100 to 1000 | – |
| COCCNc1ccc(C(=O)NC2=Nc3c(ccc(OCCCN4CCOCC4)c3OC)C3=NCCN23)cn1 [Example 55, 6-[(2-methoxyethyl)amino]-N-[7-methoxy-8-(3-morpholin-4-ylpropoxy)-2,3-dihydroimidazo[1,2-c]quinazolin-5-yl]nicotinamide] | 100 to 1000 | – |
